From patent publication US20150250882A1, “Fatty Acid Acylated Amino Acids for Growth Hormone Delivery” (Novo Nordisk Health Care AG, priority 2012, published 2015)

Experiments:
HT29-MTX (E12) cells = assay: Transepithelial transport of GH compounds across E12 cell monolayers (Papp); assay type: in vitro ADME; conditions: for Fold increase (Papp of GH A2 + FA-aa relative to GH A2 alone): GH-A2, same procedure: 0.5 mM FA-aa, transport buffer pH 7.4; for effect on permeation / trans-epithelia transport of the growth hormone compounds (in words): GH-A1 and GH-A2; for effect on GH A1 transport (in words): based on fold increase relative to GH A1 alone; for effect on the transportation of GH A2 (in words): fold increase relative to GH A2 alone
Procedure: HT29-MTX (E12) cells (Pharm Res. 2001; 18(8):1138-45 and Pharm Res. 2007; 24(7):1346-56) were grown in Dulbecco's Modified Eagle Medium supplemented with 10% foetal bovine serum (FBS), 1% penicillin/streptomycin, 1% L-glutamine and 1% non-essential amino acids. For the transport assay, E12 cells were seeded onto tissue culture treated polycarbonate filters in 12-well Transwell® plates (1.13 cm2, 0.4 μm pore size) at a density of 10^5 cells per well. Cells were cultured at 37° C. in an atmosphere of 5% CO2 and the culture media was exchange every second day. Transport experiments were performed after 14-18 days in culture.
The amount of GH compound transported from the donor chamber (apical side) to the receiver chamber (basolateral side) was measured.
Before the experiment, the E12 cells are equilibrated for 60 min with transport buffer on both sides of the epithelium. Buffer is then removed and the experiment initiated by adding a test solution to the donor chamber and a corresponding transport buffer to the receiver chamber. Donor samples ([…]) are taken at 0 min and at the end of the experiment. Receiver samples ([…]) are taken at regular intervals such as every 15 min. The study is usually performed in an atmosphere of 5% CO2-95% O2 at 37° C. on a shaking plate (30 rpm).
Transport of [3H]mannitol, a marker for paracellular transport, may be measured, to verify the integrity of the epithelium, using a scintillation counter.
Before and during the experiment the transepithelial electrical resistance (TEER) of the cell monolayers is monitored. The TEER is measured with EVOM™ Epithelial Voltohmmeter connected to Chopsticks.
The transport study was performed as described in General Method D (Example 1). […] […] The permeation (Papp) of a Growth hormone compound in the presence of different FA-aa's was measured and the fold increase (or decrease) compared to the Growth hormone compound alone was calculated.

[1] = Intra intestinal (mid-jejunum) administration of GH compounds with FA-aa to rats, AUC enhancement; assay type: in vivo, Sprague-Dawley rats; conditions: SBTI 2% with C16-sarcosinate 30 mg/ml, FIGS. 5, 6 and 7
Procedure: Each composition is prepared as a 100 pl dosage injected into mid-jejenum of fully anaesthetized overnight fasted Sprague-Dawley rats (n=6, 9 or 18).
At each sampling time 0.25 ml blood is drawn from the tail vein using a 25 G needle. Sampling times are: pre-dose and 0.25, 0.5, 1, 2, 4 and 6 hours after dosing. The blood is sampled into a EDTA coated test tube and stored on ice until centrifugation at 1200×G for 10 min at 4° C. Plasma is transferred to a Micronic tube and stored at −20° C. until analysis.
The limit of detection of the assay was 0.2 nM.
The samples were analysed using a Luminescence Oxygen Channeling Immunoassay (LOCI), a homogenous bead based assay. […] One of the bead reagents is a generic reagent (donor beads) and is coated with streptavidin and contains a photosensitive dye. The second bead reagent (acceptor beads) is coated with an antibody making up the sandwich. […] Illumination of the complex releases singlet oxygen from the donor beads which channels into the acceptor beads and triggers chemiluminescence which is measured in the EnVision plate reader. […]

[2] = Pharmacokinetics (T½) of growth hormone compounds in rats after i.v./s.c. single dose; assay type: in vivo, Sprague Dawley rats; conditions: assay of Example 1.C (i.v. or s.c.)
Procedure: The pharmacokinetic of the compounds of the examples is investigated in male Sprague Dawley rats after intravenous (i.v.) and subcutaneous (s.c.) single dose administration.
Test compounds are diluted to a final concentration of 1 mg/mL in a dilution buffer consisting of: Glycine 20 mg/mL, mannitol 2 mg/mL, NaHCO3 2.5 mg/mL, pH adjusted to 8.2.
The test compounds are studied in male Sprague Dawley rats weighing 250 g. The test compounds are administered as a single injection either i.v. in the tail vein or s.c. in the neck with a 25 G needle at a predetermined dose such as of 15 nmol/rat in volume of 0.1 ml (concentration 150 nmol/ml) or 60 nmol/kg body weight. […]
At each sampling time 0.25 ml blood is drawn from the tail vein using a 25 G needle. The blood is sampled into a EDTA coated test tube and stored on ice until centrifugation at 1200×G for 10 min at 4° C. […]
Test compound concentrations are determined by a sandwich ELISA using a guinea pig anti-hGH polyclonal antibody as catcher, and biotinylated hGH binding-protein (soluble part of human GH receptor) as detector. […]
A non-compartmental pharmacokinetic analysis is performed on mean concentration-time profiles of each test compound using WinNonlin Professional (Pharsight Inc., Mountain View, Calif., USA). The pharmacokinetic parameter estimates of terminal half-life (t1/2) and mean residence time (MRT) are calculated.

Molecule: CCCCCCCCCC(=O)N(C)CC(=O)O [C10-Sarc, N-decanoyl-L-sarcosine]
- Fold increase (Papp of GH A2 + FA-aa relative to GH A2 alone) (HT29-MTX (E12) cells): 0.7 fold

Molecule: CCCCCCCCCCCC(=O)NCC(=O)O [C12-Gly, N-dodecanoyl-L-glycine]
- Fold increase (Papp of GH A2 + FA-aa relative to GH A2 alone) (HT29-MTX (E12) cells): 3.4 fold

Molecule: CCCCCCCCCCCCCCCC(=O)NC(CC(=O)O)C(=O)O (stereo not drawn) [C16-(D)-Asp]
- Fold increase (Papp of GH A2 + FA-aa relative to GH A2 alone) (HT29-MTX (E12) cells): 1.8 fold

Molecule: CCCCCCCCCCCCCCCC(=O)NC(CCC(=O)O)C(=O)O [C16-D-Glu]
- Fold increase (Papp of GH A2 + FA-aa relative to GH A2 alone) (HT29-MTX (E12) cells): 4.1 fold

Molecule: CCCCCCCCCCCCCCCC(=O)N[C@@H](CCC(N)=O)C(=O)[O-].[Na+] [C16-Gln, sodium (2S)-5-amino-5-oxo-2-(hexadecanoylamino)pentanoate]
- effect on permeation / trans-epithelia transport of the growth hormone compounds (in words) (HT29-MTX (E12) cells): superior effect
- effect on GH A1 transport (in words) (HT29-MTX (E12) cells): biggest effect
- effect on the transportation of GH A2 (in words) (HT29-MTX (E12) cells): biggest effect

Molecule: CCCCCCCCCCCCCCCC(=O)N[C@@H](CCC(=O)[O-])C(=O)[O-].[Na+].[Na+] [C16-Glu, disodium (2S)-2-(hexadecanoylamino)pentanedioate]
- effect on permeation / trans-epithelia transport of the growth hormone compounds (in words) (HT29-MTX (E12) cells): superior effect
- effect on GH A1 transport (in words) (HT29-MTX (E12) cells): biggest effect
- effect on the transportation of GH A2 (in words) (HT29-MTX (E12) cells): biggest effect

Molecule: CCCCCCCCCCCCCCCC(=O)N(C)CC(=O)[O-].[Na+] [C16-Sarc, sodium 2-[hexadecanoyl(methyl)amino]acetate]
- effect of protease inhibitor on GH absorption enhancing effect of FA-aa (in words) [1]: significantly improved by the presence of an enzyme inhibitor

Molecule: wt human growth hormone: human growth hormone identified by SEQ ID NO 1
- T ½ [2]: 12 to 14 min
